Measured values: US20110320392A1, “METHODS FOR PREDICTING CANCER RESPONSE TO EGFR INHIBITORS” (priority 2009, published 2011)

Experiments:
HCC827 = assay: erlotinib sensitivity of validation lung cancer cell line; format: cell-based, human; details: lung cancer cell line HCC827, validation set
Procedure: (§1) The panel of NSCLC cell lines were separated into sensitive and resistant to erlotinib treatment using an apoptosis assay after 48 h as a measure (Balko et al., 2006). […] All cell lines were passaged as previously published and harvested after 2 days growth in serum-containing media (Balko et al., 2006). Lung cancer cell lines sensitive to erlotinib (H322 and HCC827) and resistant to erlotinib (H2122 and H820) and pancreatic cancer cell lines sensitive to erlotinib (Aspc-1 and Bxpc-3) and resistant to erlotinib (Mia PaCa-2 and Panc-1) were used for validation of the predictor, as previously described, again harvested after 2 days growth in serum-containing media (Tzeng et al., 2007).

H2122 = assay: as above; format: cell-based, human; details: lung cancer cell line H2122, validation set
Procedure: as §1

H322 = assay: as above; format: cell-based, human; details: lung cancer cell line H322, validation set
Procedure: as §1

H820 = assay: as above; format: cell-based, human; details: lung cancer cell line H820, validation set
Procedure: as §1

Bxpc-3 = details: pancreatic cancer cell line Bxpc-3, validation set (Tzeng et al., 2007); cited from earlier work
Mia PaCa-2 = details: pancreatic cancer cell line Mia PaCa-2, validation set (Tzeng et al., 2007); cited from earlier work
Panc-1 = details: pancreatic cancer cell line Panc-1, validation set (Tzeng et al., 2007); cited from earlier work
PC-9 = assay: erlotinib sensitivity, apoptosis assay after 48 h; format: cell-based, human; details: NSCLC cell line PC-9, apoptosis assay after 48 h
Procedure: (§2) The lung cancer cell lines were analyzed for in vitro sensitivity to the EGFR-tyrosine kinase inhibitor erlotinib. Cell lines were designated as “resistant” or sensitive” based upon an empirically determined threshold.
as §1

UKY-29 = assay: erlotinib sensitivity, apoptosis assay after 48 h; format: cell-based, human; details: NSCLC cell line UKY-29, apoptosis assay after 48 h
Procedure: as §2, §1

H1650 = assay: erlotinib sensitivity, apoptosis assay after 48 h; format: cell-based, human; details: NSCLC cell line H1650, apoptosis assay after 48 h
Procedure: as §2, §1

H3255 = assay: erlotinib sensitivity, apoptosis assay after 48 h; format: cell-based, human; details: NSCLC cell line H3255, apoptosis assay after 48 h
Procedure: as §2, §1

H358 = assay: erlotinib sensitivity, apoptosis assay after 48 h; format: cell-based, human; details: NSCLC cell line H358, apoptosis assay after 48 h
Procedure: as §2, §1

A549 = assay: erlotinib sensitivity, apoptosis assay after 48 h; format: cell-based, human; details: NSCLC cell line A549, apoptosis assay after 48 h
Procedure: as §2, §1

H460 = assay: erlotinib sensitivity, apoptosis assay after 48 h; format: cell-based, human; details: NSCLC cell line H460, apoptosis assay after 48 h
Procedure: as §2, §1

H1975 = assay: erlotinib sensitivity, apoptosis assay after 48 h; format: cell-based, human; details: NSCLC cell line H1975, apoptosis assay after 48 h
Procedure: as §2, §1

Aspc-1 = details: pancreatic cancer cell line Aspc-1, validation set (Tzeng et al., 2007); cited from earlier work

Structure (SMILES): C#Cc1cccc(Nc2ncnc3cc(OCCOC)c(OCCOC)cc23)c1 [erlotinib]
- sensitivity to erlotinib (HCC827): sensitive
- sensitivity to erlotinib (H2122): resistant
- sensitivity to erlotinib (H322): sensitive
- sensitivity to erlotinib (H820): resistant
- sensitivity to erlotinib (Bxpc-3): sensitive
- sensitivity to erlotinib (Mia PaCa-2): resistant
- sensitivity to erlotinib (Panc-1): resistant
- sensitivity to erlotinib treatment (PC-9): sensitive
- sensitivity to erlotinib treatment (UKY-29): Resistant
- sensitivity to erlotinib treatment (H1650): sensitive
- sensitivity to erlotinib treatment (H3255): sensitive
- sensitivity to erlotinib treatment (H358): sensitive
- sensitivity to erlotinib treatment (A549): Resistant
- sensitivity to erlotinib treatment (H460): Resistant
- sensitivity to erlotinib treatment (H1975): Resistant
- sensitivity to erlotinib (Aspc-1): sensitive
